{"source": "paper PMC7016953", "about": "(Cells, 2020)", "key": {"[1]": {"test_system": "T1, heteromeric TRPC3:TRPC6 channel complexes", "T1 construct": "expressed in transfected cells; host or cells: HEK293, stably co-transfected", "assay": "Fluo-4 Ca2+ influx assay in HEK293 cells co-expressing TRPC3 and TRPC6", "format": "cell-based", "settings": "fluo-4 concentration response analysis", "experimental": "All fluorometric Ca^2+ assays were done in (4-(2-hydroxyethyl)-1-piperazineethanesulfonic acid) (HEPES)-buffered saline (HBS), containing 132 mM NaCl, 6 mM KCl, 1 mM MgCl2, 1 mM CaCl2, 5.5 mM D-glucose, 10 mM HEPES, and 0.035% bovine serum albumin (BSA) adjusted to pH 7.4 with NaOH. For measurements in Ca^2+-free bath solutions, a modified HBS without CaCl2 was supplemented with 200 µM ethylene glycol-bis(β-aminoethyl ether)-N,N,N′,N′-tetraacetic acid (EGTA).\nThe primary compound screen and the generation of concentration response curves in HEK293 cells or in PC12 cells were performed by using a custom-made fluorescence plate imager built into a robotic liquid handling station equipped with a 96-tip multichannel head (Freedom Evo 150, Tecan, Männedorf, Switzerland) as described previously. To this end, trypsinized cell suspensions were loaded with 4 µM fluo-4/AM (Invitrogen, Thermo Fisher Scientific, Waltham, MA, U.S.A.) in cell culture medium for 30 min at 37 °C. After brief centrifugation, cells were resuspended in HBS and dispensed into black pigmented, clear-bottom 384-well plates (Greiner µClear, Frickenhausen, Germany). Plates were mounted on the imager, and fluorescence signals were recorded with a cooled Zyla 5.5 camera (Andor, Belfast, UK) through a 515 nm long pass filter. The image acquisition was controlled by the µManager software (http://micro-manager.org), and excitation with a LED array (470 nm) was synchronized by the camera trigger output. After baseline recording for about 60 s, the compound libraries or serial dilutions of activators or inhibitors were added to the cells by the liquid handling device. When inhibitory potencies were evaluated, a second pipetting step with the respective reference agonist was performed. Fluorescence intensities were calculated from image stacks for each well with ImageJ (National Institutes of Health, Bethesda, MD, U.S.A.), corrected for background signals, and normalized to the initial intensities (F/F0). […]"}, "TRPC6": {"test_system": "T2, TRPC6", "T2 construct": "expressed in transfected cells", "assay": "Microfluorometric single-cell [Ca2+]i analysis, fura-2-loaded HEK cells stably expressing TRPC6", "format": "cell-based, human", "settings": "50 µM, standard bath 1 mM Ca2+", "experimental": "The microfluorometric single-cell [Ca^2+]i analysis was performed on an inverted epifluorescence microscope (Carl Zeiss, Jena, Germany) and calibrated as described. Cells were grown on 25 mm coverslips and loaded with 4 µM fura-2/AM (AAT Bioquest, Sunnyvale, CA, U.S.A.) in HBS containing 0.2% BSA for 30 min at 37 °C. […] Experiments were performed either in standard bath solution, containing 1 mM Ca^2+ (black lines and bars), or in a nominally Ca^2+-free HBS buffer, supplemented with 200 µM EGTA (grey lines and bars). Time courses of averaged responses (left), and statistical analysis of 6–11 independent imaging experiments with means and S.D. (right) are shown. Significant differences (p < 0.05, Student´s t-test with paired data: #, with unpaired data: *) are marked for the indicated comparisons; n.s.: difference is statistically not significant."}, "parental HEK293 cells": {"test_system": "parental HEK293 cells", "assay": "MTT cell viability assay", "format": "cell-based, human", "settings": "24 h", "experimental": "Cells were seeded in poly-L-lysine-coated 96-well plates at a density of 10,000 cells per well. After 24 h, the medium was exchanged, and compounds or the corresponding solvent were added and incubated for another 24 h. Then, the medium was removed, and a fresh medium containing 0.5 mg/mL MTT was added. After 3 h of incubation, supernatants were aspirated, and cells containing formazan crystals were lysed with 100% DMSO. Finally, absorbance of DMSO-dissolved formazan was measured at 560 and 670 nm with a plate reader (Polarstar Omega, BMG Labtech, Germany). The differences of both extinctions were calculated, and values were normalized to a solvent control (0.25% DMSO)."}}, "data": [{"smiles": "C[C@@H]1CC[C@H]2[C@@H](C)C(=O)O[C@@H]3O[C@@]4(C)CC[C@@H]1[C@]32OO4", "note": "[artemisinin]", "values": [{"measurement": "response of cells stably transfected with both TRPC3 and TRPC6", "setting": "[1]", "value": "in a very similar fashion as HEKTRPC3-YFP cells"}, {"measurement": "[Ca2+]i response in TRPC6-expressing cells", "setting": "TRPC6", "value": "remained unaffected"}, {"measurement": "metabolic activity (MTT test)", "setting": "parental HEK293 cells; 100 µM", "value": "slight and statistically significant reduction of metabolic activity"}, {"measurement": "metabolic activity (MTT test)", "setting": "parental HEK293 cells; concentrations up to 50 µM", "value": "did not reduce the metabolic activity"}]}]}
